Experimental data taken from patent US20250161308A1, “Methods of Treating Covid-Related Disorders” (priority 2022, published 2025).
Where two headings read alike, the source gives them in different places.

Legend:
[1] = tested on: Rat primary cortical neuron cultures; type: cell-based; settings: for Significance of neuroprotection vs 1 uM LPS: 24 h LPS; for protection of primary neurons from LPS-stimulated inflammatory toxicity: at at least one dose tested
[2] = tested on: LPS-induced cognitive deficit in CD-1 mice; assay: Rodent LPS model of brain inflammation, T-maze spontaneous alternation; type: in vivo, mouse; settings: for Recovery (%) / Spontaneous alternation (%) Mean: LPS 250 μg/kg
[3] = tested on: pulmonary LPS-stimulated rats; assay: Cytokine expression in BALF supernatant (multiplex immunoassay), LPS acute pulmonary inflammation; type: in vivo, rat
Rat hippocampal neurons [4] = assay: Synaptogenesis assay; type: cell-based; settings: for Significant increase in: Synapses: Table 4 study
[5] = tested on: pulmonary LPS-stimulated rats; assay: Immune cell infiltration in BALF, LPS acute pulmonary inflammation; type: in vivo, rat
Rat hippocampal neurons [6] = assay: Neurite outgrowth assay; type: cell-based
[7] = tested on: THP1-differentiated macrophages; type: cell-based, human; set-up: key to Significant reduction in IL-6 / Significant reduction in TNF-α / Significant reduction in IL-1β: NS: indicates a non-significant reduction in the indicated cytokine; +: indicates a p value<0.05 in Tukey post test; ++: indicates a p value<0.01 in Tukey post test; settings: for Significant reduction in IL-1β / Significant reduction in IL-6 / Significant reduction in TNF-α: 24 hrs LPS
[8] = tested on: scopolamine-induced spatial memory deficits in rats; assay: Scopolamine-induced spatial memory deficit, Morris water maze (3 mg/kg scopolamine, 8 days); type: in vivo, rat

CCC(C)CN1CC2N(Cc3ccc(C(F)(F)F)cc3)CCC(=O)N2[C@@H](C)C1=O (some centres unmarked) [Compound 5a]
Significance of neuroprotection vs 1 uM LPS ([1]; 0.1 nM): +++ (+++ indicates p<0.001)
Significance of neuroprotection vs 1 uM LPS ([1]; 1 nM): +++ (+++ indicates p<0.001)
Significance of neuroprotection vs 1 uM LPS ([1]; 10 nM): +++ (+++ indicates p<0.001)
Significance of neuroprotection vs 1 uM LPS ([1]; 100 nM): +++ (+++ indicates p<0.001)
Significance of neuroprotection vs 1 uM LPS ([1]; 1 μM): +++ (+++ indicates p<0.001)
protection of primary neurons from LPS-stimulated inflammatory toxicity [1]: protected primary neurons from LPS-stimulated inflammatory toxicity
Recovery (%) ([2]; 1.25 mg/kg p.o. 14 days): 58%
Spontaneous alternation (%) Mean ([2]; 1.25 mg/kg p.o. 14 days): 59%
Spontaneous alternation (%) Mean ([2]; 1.25 mg/kg p.o. 14 days, listed as Cmpd 5a): 59.3%
Recovery (%) ([2]; 2.5 mg/kg p.o. 14 days): 53%
Spontaneous alternation (%) Mean ([2]; 2.5 mg/kg p.o. 14 days): 58%
Spontaneous alternation (%) Mean ([2]; 2.5 mg/kg p.o. 14 days, listed as Cmpd 5a): 57.9%
Recovery (%) ([2]; 5 mg/kg p.o. 14 days): 64%
Spontaneous alternation (%) Mean ([2]; 5 mg/kg p.o. 14 days): 61%
Spontaneous alternation (%) Mean ([2]; 5 mg/kg p.o. 14 days, listed as Cmpd 5a): 60.7%
Recovery (%) ([2]; 10 mg/kg p.o. 14 days): 53%
Spontaneous alternation (%) Mean ([2]; 10 mg/kg p.o. 14 days): 58%
Spontaneous alternation (%) Mean ([2]; 10 mg/kg p.o. 14 days, listed as Cmpd 5a): 57.9%
Recovery (%) ([2]; 20 mg/kg p.o. 14 days): 61%
Spontaneous alternation (%) Mean ([2]; 20 mg/kg p.o. 14 days): 60%
Spontaneous alternation (%) Mean ([2]; 20 mg/kg p.o. 14 days, listed as Cmpd 5a): 60.0%
significance of reversal of LPS-induced cognitive deficit (in words) ([2]; T-maze): significant reversal of LPS-induced cognitive deficits at all doses
CCL3, significant change in expression in BALF supernatant ([3]; 0.075 mg/kg IV): + (+ = Significant change in cytokine quantification, p < 0.05 by Student's T-test.)
CX3CL1, significant change in expression in BALF supernatant ([3]; 0.075 mg/kg IV): + (+ = Significant change in cytokine quantification, p < 0.05 by Student's T-test.)
EGF, significant change in expression in BALF supernatant ([3]; 0.075 mg/kg IV): + (+ = Significant change in cytokine quantification, p < 0.05 by Student's T-test.)
IFN-γ, significant change in expression in BALF supernatant ([3]; 0.075 mg/kg IV): + (+ = Significant change in cytokine quantification, p < 0.05 by Student's T-test.)
IL-1α, significant change in expression in BALF supernatant ([3]; 0.075 mg/kg IV): + (+ = Significant change in cytokine quantification, p < 0.05 by Student's T-test.)
IL-1β, significant change in expression in BALF supernatant ([3]; 0.075 mg/kg IV): + (+ = Significant change in cytokine quantification, p < 0.05 by Student's T-test.)
IL-10, significant change in expression in BALF supernatant ([3]; 0.075 mg/kg IV): + (+ = Significant change in cytokine quantification, p < 0.05 by Student's T-test.)
IL-12p70, significant change in expression in BALF supernatant ([3]; 0.075 mg/kg IV): + (+ = Significant change in cytokine quantification, p < 0.05 by Student's T-test.)
IL-17A, significant change in expression in BALF supernatant ([3]; 0.075 mg/kg IV): + (+ = Significant change in cytokine quantification, p < 0.05 by Student's T-test.)
IFN-γ, significant change in expression in BALF supernatant ([3]; 0.75 mg/kg IV): + (+ = Significant change in cytokine quantification, p < 0.05 by Student's T-test.)
IL-1α, significant change in expression in BALF supernatant ([3]; 0.75 mg/kg IV): + (+ = Significant change in cytokine quantification, p < 0.05 by Student's T-test.)
IL-1β, significant change in expression in BALF supernatant ([3]; 0.75 mg/kg IV): + (+ = Significant change in cytokine quantification, p < 0.05 by Student's T-test.)
IL-10, significant change in expression in BALF supernatant ([3]; 0.75 mg/kg IV): + (+ = Significant change in cytokine quantification, p < 0.05 by Student's T-test.)
IL-17A, significant change in expression in BALF supernatant ([3]; 0.75 mg/kg IV): + (+ = Significant change in cytokine quantification, p < 0.05 by Student's T-test.)
IL-1α, significant change in expression in BALF supernatant ([3]; 7.5 mg/kg IV): + (+ = Significant change in cytokine quantification, p < 0.05 by Student's T-test.)
IL-10, significant change in expression in BALF supernatant ([3]; 7.5 mg/kg IV): + (+ = Significant change in cytokine quantification, p < 0.05 by Student's T-test.)
cytokines with significant changes in expression in BALF supernatant (list) ([3]; any dose, p<0.05 vs LPS-only animals): CCL3, CXCL1, IFN-γ, IL-1α, IL-1p, IL-1β, IL-12p70, and IL-17A
synapse counts (in words) (Rat hippocampal neurons [4]): increase synapse counts at doses of 1 nM and 100 nM
Significant increase in: Synapses (Rat hippocampal neurons [4]; 1 nM): ++++ (++++ = p < 0.0001)
Significant increase in: Synapses (Rat hippocampal neurons [4]; 100 nM): ++++ (++++ = p < 0.0001)
Neutrophils in BALF, reduction vs disease control ([5]; 0.075 mg/kg IV): ++ (++ = >25% reduction in cell count vs disease control)
Total Leukocytes in BALF, reduction vs disease control ([5]; 0.075 mg/kg IV): ++ (++ = >25% reduction in cell count vs disease control)
Neutrophils in BALF, reduction vs disease control ([5]; 0.75 mg/kg IV): + (+ = >5% reduction in cell count vs disease control)
Total Leukocytes in BALF, reduction vs disease control ([5]; 0.75 mg/kg IV): + (+ = >5% reduction in cell count vs disease control)
Neutrophils in BALF, reduction vs disease control ([5]; 7.5 mg/kg IV): + (+ = >5% reduction in cell count vs disease control)
Total Leukocytes in BALF, reduction vs disease control ([5]; 7.5 mg/kg IV): + (+ = >5% reduction in cell count vs disease control)
neutrophil counts compared to LPS-only controls (in words) ([5]; rat, in vivo): reduced both total leukocyte counts and neutrophil counts
total leukocyte counts compared to LPS-only controls (in words) ([5]; rat, in vivo): reduced both total leukocyte counts and neutrophil counts
neurite length / extension of neurites (in words) (Rat hippocampal neurons [6]): increase neurite length at 1 nM
Significant increase in: Neurite length (Rat hippocampal neurons [6]; 1 nM, Table 4 study): ++++ (++++ = p < 0.0001)
Significant reduction in IL-1β ([7]; 0.1 nM): ++ (indicates a p value<0.01 in Tukey post test)
Significant reduction in IL-6 ([7]; 0.1 nM): NS
Significant reduction in TNF-α ([7]; 0.1 nM): NS
Significant reduction in IL-1β ([7]; 10 nM): ++ (indicates a p value<0.01 in Tukey post test)
Significant reduction in IL-6 ([7]; 10 nM): + (indicates a p value<0.05 in Tukey post test)
Significant reduction in TNF-α ([7]; 10 nM): NS
Significant reduction in IL-1β ([7]; 1000 nM): ++ (indicates a p value<0.01 in Tukey post test)
Significant reduction in IL-6 ([7]; 1000 nM): ++ (indicates a p value<0.01 in Tukey post test)
Significant reduction in TNF-α ([7]; 1000 nM): + (indicates a p value<0.05 in Tukey post test)
expression of IL-1β (in words) ([7]; at at least one tested dose): significantly reduced the expression of IL-1β and TNF-α
expression of IL-6 (in words) ([7]; at at least one tested dose): significantly reduced the expression of IL-6
expression of TNF-α (in words) ([7]; at at least one tested dose): significantly reduced the expression of IL-1β and TNF-α

CCC(C)CN1CC2N(Cc3ccc(OC(F)F)cc3)CCC(=O)N2[C@@H](C)C1=O (some centres unmarked) [Compound 6a]
Significance of neuroprotection vs 1 uM LPS ([1]; 0.1 nM): +++ (+++ indicates p<0.001)
Significance of neuroprotection vs 1 uM LPS ([1]; 1 nM): +++ (+++ indicates p<0.001)
Significance of neuroprotection vs 1 uM LPS ([1]; 10 nM): +++ (+++ indicates p<0.001)
Significance of neuroprotection vs 1 uM LPS ([1]; 100 nM): +++ (+++ indicates p<0.001)
Significance of neuroprotection vs 1 uM LPS ([1]; 1 μM): +++ (+++ indicates p<0.001)
protection of primary neurons from LPS-stimulated inflammatory toxicity [1]: protected primary neurons from LPS-stimulated inflammatory toxicity
Significant reduction in IL-1β ([7]; 0.1 nM): NS
Significant reduction in IL-6 ([7]; 0.1 nM): NS
Significant reduction in TNF-α ([7]; 0.1 nM): NS
Significant reduction in IL-1β ([7]; 10 nM): NS
Significant reduction in IL-6 ([7]; 10 nM): NS
Significant reduction in TNF-α ([7]; 10 nM): NS
Significant reduction in IL-1β ([7]; 1000 nM): + (indicates a p value<0.05 in Tukey post test)
Significant reduction in IL-6 ([7]; 1000 nM): NS
Significant reduction in TNF-α ([7]; 1000 nM): + (indicates a p value<0.05 in Tukey post test)
expression of IL-1β (in words) ([7]; at at least one tested dose): significantly reduced the expression of IL-1β and TNF-α
expression of TNF-α (in words) ([7]; at at least one tested dose): significantly reduced the expression of IL-1β and TNF-α
Cognitive Improvement ([8]; 1 mg/kg PO): − (− indicates post-test p-value above 0.06)
Cognitive Improvement ([8]; 10 mg/kg PO): ++ (++ indicates post-test p-value between 0.05 and 0.01)
